Data from patent US9073911B2, “Pyrazole derivatives” (HOFFMANN-LA ROCHE INC., priority 2011, dated 2015).
Counter-ions that a name gives are not always drawn.

Legend:
rat TAAR1 = rat TAAR1 (Rattus norvegicus (Rat), UniProt Q923Y9); assay: Radioligand binding assay on rat TAAR1; conditions: membranes of HEK-293 cells stably expressing rat TAAR1; second value of cell mouse/rat
Method: (§1) Construction of TAAR Expression Plasmids and Stably Transfected Cell Lines
(§2) For the construction of expression plasmids the coding sequences of human, rat and mouse TAAR 1 were amplified from genomic DNA essentially as described by Lindemann et al.. The Expand High Fidelity PCR System (Roche Diagnostics) was used with 1.5 mM Mg^2+ and purified PCR products were cloned into pCR2.1-TOPO cloning vector (Invitrogen) following the instructions of the manufacturer. PCR products were subcloned into the pIRESneo2 vector (BD Clontech, Palo Alto, Calif.), and expression vectors were sequence verified before introduction in cell lines.
(§3) HEK293 cells (ATCC # CRL-1573) were cultured essentially as described by Lindemann et al. (2005). For the generation of stably transfected cell lines HEK293 cells were transfected with the pIRESneo2 expression plasmids containing the TAAR coding sequences (described above) with Lipofectamine 2000 (Invitrogen) according to the instructions of the manufacturer, and 24 hrs post transfection the culture medium was supplemented with 1 mg/ml G418 (Sigma, Buchs, Switzerland). After a culture period of about 10 d clones were isolated, expanded and tested for responsiveness to trace amines (all compounds purchased from Sigma) with the cAMP Biotrak Enzyme immunoassay (EIA) System (Amersham) following the non-acetylation EIA procedure provided by the manufacturer.
Radioligand Binding Assay on rat TAAR1
(§4) Membrane Preparation and Radioligand Binding.
HEK-293 cells stably expressing rat TAAR1 were maintained at 37° C. and 5% CO2 in DMEM high glucose medium, containing fetal calf serum (10%, heat inactivated for 30 min at 56° C.), penicillin/streptomycin (1%), and 375 μg/ml geneticin (Gibco). Cells were released from culture flasks using trypsin/EDTA, harvested, washed twice with ice-cold PBS (without Ca^2+ and Mg^2+), pelleted at 1,000 rpm for 5 min at 4° C., frozen and stored at −80° C. Frozen pellets were suspended in 20 ml HEPES-NaOH (20 mM, pH 7.4) containing 10 mM EDTA and homogenized with a Polytron (PT 6000, Kinematica) at 14,000 rpm for 20 s. The homogenate was centrifuged at 48,000×g for 30 min at 4° C. Subsequently, the supernatant was removed and discarded, and the pellet resuspended in 20 ml HEPES-NaOH (20 mM, pH 7.4) containing 0.1 mM EDTA using the Polytron (20 s at 14,000 rpm). This procedure was repeated and the final pellet resuspended in HEPES-NaOH containing 0.1 mM EDTA and homogenized using the Polytron. Typically, aliquots of 2 ml membrane portions were stored at −80° C. With each new membrane batch the dissociation constant (Kd) was determined via a saturation curve.
Nonspecific binding was defined as the amount of ^3-[H]-(S)-4-[(ethyl-phenyl-amino)-methyl]-4,5-dihydro-oxazol-2-ylamine bound in the presence of 10 μM unlabeled ligand. All compounds were tested at a broad range of concentrations (10 pM to 10 μM) in duplicates. […] The 96 deep well plates were incubated for 1 hr at 4° C. Incubations were terminated by rapid filtration through Unifilter-96 plates (Packard Instrument Company) and glass filters GF/C (Perkin Elmer) presoaked for 1 hr in polyethylenimine (0.3%) and washed 3 times with 1 ml of cold binding buffer. After addition of 45 μl of Microscint 40 (PerkinElmer) the Unifilter-96 plate was sealed and after 1 hr the ratioactivity counted using a TopCount Microplate Scintillation Counter (Packard Instrument Company).

mouse TAAR1 = mouse TAAR1 (Mus musculus (Mouse), UniProt Q923Y8); assay: Radioligand binding assay on mouse TAAR1; conditions: membranes of HEK-293 cells stably expressing mouse TAAR1; first value of cell mouse/rat
mouse TAAR1, sequence (Q923Y8 whole entry): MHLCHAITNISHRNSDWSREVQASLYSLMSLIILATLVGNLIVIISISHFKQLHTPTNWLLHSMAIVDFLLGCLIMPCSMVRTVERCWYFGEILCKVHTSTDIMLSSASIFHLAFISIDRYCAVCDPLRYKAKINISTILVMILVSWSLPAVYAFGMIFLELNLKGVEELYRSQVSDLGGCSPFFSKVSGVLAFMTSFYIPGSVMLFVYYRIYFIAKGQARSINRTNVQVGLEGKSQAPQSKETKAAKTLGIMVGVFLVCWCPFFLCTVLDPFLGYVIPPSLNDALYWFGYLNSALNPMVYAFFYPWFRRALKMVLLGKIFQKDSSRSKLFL
Method: as §1, §2, §3
Radioligand Binding Assay on Mouse TAAR1
as §4
HEK-293 cells stably expressing mouse TAAR1 were maintained at 37° C. and 5% CO2 in DMEM high glucose medium, containing fetal calf serum (10%, heat inactivated for 30 min at 56° C.), penicillin/streptomycin (1%), and 375 μg/ml geneticin (Gibco). Cells were released from culture flasks using trypsin/EDTA, harvested, washed twice with ice-cold PBS (without Ca^2+ and Mg^2+), pelleted at 1,000 rpm for 5 min at 4° C., frozen and stored at −80° C. Frozen pellets were suspended in 20 ml HEPES-NaOH (20 mM, pH 7.4) containing 10 mM EDTA and homogenized with a Polytron (PT 6000, Kinematica) at 14,000 rpm for 20 s. The homogenate was centrifuged at 48,000×g for 30 min at 4° C. Subsequently, the supernatant was removed and discarded, and the pellet resuspended in 20 ml HEPES-NaOH (20 mM, pH 7.4) containing 0.1 mM EDTA using the Polytron (20 s at 14,000 rpm). This procedure was repeated and the final pellet resuspended in HEPES-NaOH containing 0.1 mM EDTA and homogenized using the Polytron. Typically, aliquots of 2 ml membrane portions were stored at −80° C. With each new membrane batch the dissociation constant (Kd) was determined via a saturation curve. The TAAR1 radioligand ^3[H]—(S)-4-[(ethyl-phenyl-amino)-methyl]-4,5-dihydro-oxazol-2-ylamine (described in WO 2008/098857) was used at a concentration equal to the calculated Kd value, that was usually around 0.7 nM, resulting in the binding of approximately 0.5% of the radioligand and a specific binding representing approximately 70% of the total binding. Nonspecific binding was defined as the amount of ^3[H]—(S)-4-[(ethyl-phenyl-amino)-methyl]-4,5-dihydro-oxazol-2-ylamine bound in the presence of 10 μM unlabeled ligand. All compounds were tested at a broad range of concentrations ([…]) in duplicates. […] The 96 deep well plates were incubated for 1 hr at 4° C. Incubations were terminated by rapid filtration through Unifilter-96 plates (Packard Instrument Company) and glass filters GF/C (Perkin Elmer) presoaked for 1 hr in polyethylenimine (0.3%) and washed 3 times with 1 ml of cold binding buffer. After addition of 45 μl of Microscint 40 (PerkinElmer) the Unifilter-96 plate was sealed and after 1 hr the radioactivity counted using a TopCount Microplate Scintillation Counter (Packard Instrument Company).

rat TAAR1, sequence (Q923Y9 whole entry): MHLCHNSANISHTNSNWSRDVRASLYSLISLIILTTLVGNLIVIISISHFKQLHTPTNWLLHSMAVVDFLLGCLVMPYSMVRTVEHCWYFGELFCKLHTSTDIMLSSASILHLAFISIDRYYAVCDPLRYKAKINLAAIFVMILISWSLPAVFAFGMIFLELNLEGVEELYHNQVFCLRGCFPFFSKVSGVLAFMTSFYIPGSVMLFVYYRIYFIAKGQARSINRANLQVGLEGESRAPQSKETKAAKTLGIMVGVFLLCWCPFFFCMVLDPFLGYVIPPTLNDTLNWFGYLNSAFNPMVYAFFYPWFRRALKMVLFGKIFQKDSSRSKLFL

| SMILES | Ki (rat TAAR1) | Ki (mouse TAAR1) |
| --- | --- | --- |
| O=C(Nc1ccc([C@H]2CNCCO2)cc1)c1cc(-c2ccc(F)cc2)[nH]n1 [Example 3, (S)-3-(4-fluorophenyl)-N-(4-(morpholin-2-yl)phenyl)-1H-pyrazole-5-carboxamide hydrochloride] | 0.0027 µM | 0.0008 µM |
| COc1ccccc1-c1cc(C(=O)Nc2ccc([C@H]3CNCCO3)cc2)[nH]n1 [Example 9, (S)-3-(2-methoxyphenyl)-N-(4-(morpholin-2-yl)phenyl)-1H-pyrazole-5-carboxamide hydrochloride] | 0.014 µM | 0.0014 µM |
| O=C(Nc1ccc([C@H]2CNCCO2)cc1)c1cc(-c2ccc(Cl)cc2)n[nH]1 [Example 14, (S)-3-(4-chlorophenyl)-N-(4-(morpholin-2-yl)phenyl)-1H-pyrazole-5-carboxamide hydrochloride] | 0.0028 µM | 0.0017 µM |
| COc1cccc(-c2cc(C(=O)Nc3ccc([C@H]4CNCCO4)cc3)n[nH]2)c1 [Example 4, (S)-3-(3-methoxyphenyl)-N-(4-(morpholin-2-yl)phenyl)-1H-pyrazole-5-carboxamide hydrochloride] | 0.0022 µM | 0.001 µM |
| O=C(Nc1ccc([C@H]2CNCCO2)cc1)c1cc(-c2cccc(Cl)c2)[nH]n1 [Example 2, (S)-3-(3-chlorophenyl)-N-(4-(morpholin-2-yl)phenyl)-1H-pyrazole-5-carboxamide hydrochloride] | 0.0004 µM | 0.0003 µM |
| N#Cc1cccc(-c2cc(C(=O)Nc3ccc([C@H]4CNCCO4)cc3)n[nH]2)c1 [Example 20, (S)-5-(3-cyanophenyl)-N-(4-(morpholin-2-yl)phenyl)-1H-pyrazole-3-carboxamide hydrochloride] | 0.0074 µM | 0.0022 µM |
| N#Cc1cccc(-c2cc(C(=O)Nc3ccc([C@@H]4CCCNC4)cc3)[nH]n2)c1 [Example 36, (S)-3-(3-Cyanophenyl)-N-(4-(piperidin-3-yl)phenyl)-1H-pyrazole-5-carboxamide hydrochloride] | 0.0138 µM | 0.0014 µM |
| O=C(Nc1ccc([C@@H]2CNCCO2)cc1)c1cc(-c2ccc(Cl)cc2)n[nH]1 [Example 12, (R)-3-(4-chlorophenyl)-N-(4-(morpholin-2-yl)phenyl)-1H-pyrazole-5-carboxamide hydrochloride] | 0.0004 µM | 0.0005 µM |
| O=C(Nc1ccc([C@H]2CNCCO2)cc1)c1cc(-c2cccc(OC(F)F)c2)n[nH]1 [Example 40, (S)-3-(3-(Difluoromethoxy)phenyl)-N-(4-(morpholin-2-yl)phenyl)-1H-pyrazole-5-carboxamide hydrochloride] | 0.0013 µM | 0.0005 µM |
| N#Cc1cccc(-c2cc(C(=O)Nc3ccc([C@H]4CNCCO4)cc3)[nH]n2)c1F [Example 43, (S)-3-(3-Cyano-2-fluorophenyl)-N-(4-(morpholin-2-yl)phenyl)-1H-pyrazole-5-carboxamide hydrochloride] | 0.011 µM | 0.0016 µM |
| COc1ccc(-c2cc(C(=O)Nc3ccc([C@H]4CNCCO4)cc3)[nH]n2)cc1 [Example 7, (S)-3-(4-methoxyphenyl)-N-(4-(morpholin-2-yl)phenyl)-1H-pyrazole-5-carboxamide hydrochloride] | 0.0049 µM | 0.0012 µM |
| O=C(Nc1ccc([C@H]2CNCCO2)cc1)c1ccn(-c2cncc(Cl)n2)n1 [Example 48, (S)-1-(6-Chloropyrazin-2-yl)-N-(4-(morpholin-2-yl)phenyl)-1H-pyrazole-3-carboxamide hydrochloride] | 0.0118 µM | 0.0086 µM |
| Cn1nc(-c2ccc(C#N)cc2)cc1C(=O)Nc1ccc([C@H]2CNCCO2)cc1 [Example 21, (S)-3-(4-cyanophenyl)-1-methyl-N-(4-(morpholin-2-yl)phenyl)-1H-pyrazole-5-carboxamide hydrochloride] | 0.0055 µM | 0.0053 µM |
| N#Cc1cnc(-n2ccc(C(=O)Nc3ccc([C@H]4CNCCO4)cc3)n2)cn1 [Example 53, (S)-1-(5-Cyanopyrazin-2-yl)-N-(4-(morpholin-2-yl)phenyl)-1H-pyrazole-3-carboxamide hydrochloride] | 0.0298 µM | 0.011 µM |
